From ChEMBL document CHEMBL1134625 (J Med Chem, 2001)

Key:
[1] = target: 5-hydroxytryptamine receptor 7 (Homo sapiens, UniProt P34969)
Adenosine receptor A3 = target: T1, Adenosine receptor A3 (Homo sapiens, UniProt P0DMS8)
T1 sequence (P0DMS8 whole entry): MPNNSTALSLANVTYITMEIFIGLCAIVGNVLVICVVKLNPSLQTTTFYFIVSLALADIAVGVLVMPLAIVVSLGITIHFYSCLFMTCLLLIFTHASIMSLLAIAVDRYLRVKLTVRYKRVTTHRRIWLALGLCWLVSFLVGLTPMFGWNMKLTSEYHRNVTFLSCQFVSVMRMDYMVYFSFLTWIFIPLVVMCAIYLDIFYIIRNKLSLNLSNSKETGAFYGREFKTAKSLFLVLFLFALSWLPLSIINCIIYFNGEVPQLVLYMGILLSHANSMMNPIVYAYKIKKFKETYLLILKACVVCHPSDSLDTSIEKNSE

[2] = target: T2, 5-hydroxytryptamine receptor 2C (Homo sapiens, UniProt P28335)
T2 sequence (P28335 whole entry): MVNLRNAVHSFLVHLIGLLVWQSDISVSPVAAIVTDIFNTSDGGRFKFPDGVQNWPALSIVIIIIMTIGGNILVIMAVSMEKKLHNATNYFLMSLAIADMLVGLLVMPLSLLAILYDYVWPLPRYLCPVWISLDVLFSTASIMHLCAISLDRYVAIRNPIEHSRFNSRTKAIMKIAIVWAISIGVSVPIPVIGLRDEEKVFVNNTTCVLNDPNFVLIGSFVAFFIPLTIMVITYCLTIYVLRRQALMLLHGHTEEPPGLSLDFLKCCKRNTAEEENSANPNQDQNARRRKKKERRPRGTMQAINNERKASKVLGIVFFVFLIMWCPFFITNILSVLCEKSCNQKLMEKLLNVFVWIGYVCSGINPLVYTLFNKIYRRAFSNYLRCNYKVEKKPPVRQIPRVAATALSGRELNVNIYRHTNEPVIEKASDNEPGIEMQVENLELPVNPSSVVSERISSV

Vasopressin V1a receptor = Vasopressin V1a receptor (Homo sapiens, UniProt P37288)
[3] = target: T3, 5-hydroxytryptamine receptor 1A (Homo sapiens, UniProt P08908)
T3 sequence (P08908 whole entry): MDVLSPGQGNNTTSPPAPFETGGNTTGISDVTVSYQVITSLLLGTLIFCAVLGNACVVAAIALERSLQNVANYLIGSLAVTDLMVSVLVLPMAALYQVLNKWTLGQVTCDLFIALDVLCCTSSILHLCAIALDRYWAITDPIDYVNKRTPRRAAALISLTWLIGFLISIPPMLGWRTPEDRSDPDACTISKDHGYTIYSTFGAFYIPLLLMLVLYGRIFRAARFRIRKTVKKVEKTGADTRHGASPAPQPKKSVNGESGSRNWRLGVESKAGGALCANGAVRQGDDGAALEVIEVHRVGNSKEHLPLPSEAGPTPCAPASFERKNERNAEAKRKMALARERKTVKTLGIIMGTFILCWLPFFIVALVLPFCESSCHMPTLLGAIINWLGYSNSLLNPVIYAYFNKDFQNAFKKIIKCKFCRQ

[4] = target: Voltage-gated L-type calcium channel (Homo sapiens, UniProt Q13936+Q13698+Q01668+O60840); format: protein assay
Histamine H1 receptor = Histamine H1 receptor (Homo sapiens, UniProt P35367)
[5] = target: 5-hydroxytryptamine receptor 6 (Homo sapiens, UniProt P50406)
5-hydroxytryptamine receptor 6, sequence (P50406 whole entry): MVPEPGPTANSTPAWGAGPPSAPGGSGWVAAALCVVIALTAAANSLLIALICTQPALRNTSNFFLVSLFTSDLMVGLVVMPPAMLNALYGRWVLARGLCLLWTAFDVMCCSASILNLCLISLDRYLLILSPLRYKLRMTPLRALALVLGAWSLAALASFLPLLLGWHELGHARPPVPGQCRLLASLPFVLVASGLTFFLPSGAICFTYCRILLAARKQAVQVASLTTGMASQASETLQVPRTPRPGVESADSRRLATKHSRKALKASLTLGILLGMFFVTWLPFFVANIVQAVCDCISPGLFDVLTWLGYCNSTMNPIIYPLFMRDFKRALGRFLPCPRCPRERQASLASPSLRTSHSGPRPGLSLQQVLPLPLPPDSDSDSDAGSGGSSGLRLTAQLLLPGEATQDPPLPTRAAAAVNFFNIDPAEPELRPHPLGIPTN

5-hydroxytryptamine receptor 7, sequence (P34969 whole entry): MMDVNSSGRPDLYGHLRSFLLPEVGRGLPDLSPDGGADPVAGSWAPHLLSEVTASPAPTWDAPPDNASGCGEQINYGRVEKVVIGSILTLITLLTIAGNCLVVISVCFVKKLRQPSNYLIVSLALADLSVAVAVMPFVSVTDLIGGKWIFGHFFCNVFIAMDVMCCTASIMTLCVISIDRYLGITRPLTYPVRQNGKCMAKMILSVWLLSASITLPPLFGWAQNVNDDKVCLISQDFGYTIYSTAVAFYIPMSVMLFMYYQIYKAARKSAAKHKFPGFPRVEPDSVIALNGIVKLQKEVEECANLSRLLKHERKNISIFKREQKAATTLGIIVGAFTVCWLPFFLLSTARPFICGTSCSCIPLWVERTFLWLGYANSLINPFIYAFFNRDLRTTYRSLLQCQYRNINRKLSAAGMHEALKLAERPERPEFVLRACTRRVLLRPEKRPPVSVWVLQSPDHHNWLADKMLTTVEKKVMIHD
Vasopressin V1a receptor, sequence (P37288 whole entry): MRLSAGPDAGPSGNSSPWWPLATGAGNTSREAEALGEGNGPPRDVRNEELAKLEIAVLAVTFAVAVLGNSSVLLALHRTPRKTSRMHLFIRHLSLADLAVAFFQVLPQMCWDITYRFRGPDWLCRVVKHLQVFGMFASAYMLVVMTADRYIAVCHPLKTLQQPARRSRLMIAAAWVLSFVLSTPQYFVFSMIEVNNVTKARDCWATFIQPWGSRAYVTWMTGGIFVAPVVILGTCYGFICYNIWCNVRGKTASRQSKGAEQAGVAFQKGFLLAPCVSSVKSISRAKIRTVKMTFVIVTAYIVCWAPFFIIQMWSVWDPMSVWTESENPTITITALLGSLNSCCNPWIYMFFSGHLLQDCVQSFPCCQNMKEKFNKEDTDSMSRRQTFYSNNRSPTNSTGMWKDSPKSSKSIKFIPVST
Histamine H1 receptor, sequence (P35367 whole entry): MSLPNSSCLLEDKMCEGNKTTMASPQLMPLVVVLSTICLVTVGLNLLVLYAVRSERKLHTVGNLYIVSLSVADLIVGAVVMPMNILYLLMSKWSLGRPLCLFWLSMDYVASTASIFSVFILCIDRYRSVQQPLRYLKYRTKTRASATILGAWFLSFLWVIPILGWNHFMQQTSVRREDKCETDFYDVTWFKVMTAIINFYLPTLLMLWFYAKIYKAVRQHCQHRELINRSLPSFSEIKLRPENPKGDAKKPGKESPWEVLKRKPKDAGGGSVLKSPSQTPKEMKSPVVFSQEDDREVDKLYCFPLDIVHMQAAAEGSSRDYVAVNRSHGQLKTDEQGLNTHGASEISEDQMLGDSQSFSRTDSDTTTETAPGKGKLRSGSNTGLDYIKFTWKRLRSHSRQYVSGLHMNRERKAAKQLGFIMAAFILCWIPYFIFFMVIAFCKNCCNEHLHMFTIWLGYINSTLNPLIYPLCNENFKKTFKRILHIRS

Work on N#Cc1ccc(CCOC(=O)NC2CCN(CCCC(c3ccc(F)cc3)c3ccc(F)cc3)CC2)cc1 yielded an IC50 [1] of 0.998 µM, an IC50 (Adenosine receptor A3) of 5.98 µM and an IC50 [2] of 2.76 µM. The IC50 (Vasopressin V1a receptor) was 3.65 µM, the IC50 [3] was 0.985 µM and the IC50 [4] was 0.284 µM. The IC50 (Histamine H1 receptor) was 0.454 µM and the IC50 [5] was 0.427 µM.
